Assay results from EP0427799B1, “METHOD AND COMPOUNDS FOR AICA RIBOSIDE DELIVERY AND FOR LOWERING BLOOD GLUCOSE” (GENSIA, INC., priority 1989, dated 1990).

Experiments:
adenosine kinase = adenosine kinase (Homo sapiens, UniProt P55263); assay: Inhibition of adenosine kinase; format: biochemical
cell culture = assay: Adenosine concentrations in cell culture during net ATP breakdown; format: cell-based
Excerpt: (§1) We have expanded this work on AICA riboside and S-AICA riboside homocysteine to examine other known adenosine kinase inhibitors as adenosine releasing agents. The flux (substrate made into product per unit of time), through adenosine kinase under physiological conditions is low; substrate metabolism is low partly due to low substrate availability. However, during net ATP catabolism, substrate availability (i.e. adenosine concentration) dramatically increases. […] (See Figure 15).

[1] = Blood pressure and heart rate in rats; format: in vivo
Excerpt: as §1

PTZ induced seizures = assay: Inhibition of PTZ-induced seizures; format: in vivo; settings: mice
Procedure: (§2) All solutions to be injected were prepared as a single injection cocktail at a concentration such that 1 ml per 100 g of body weight yielded the desired dose. The solutions were compounded as follows: Homocysteine Thiolactone - HCl (HTL-HCl) (Sigma Chemical Company, St. Louis, MO) was dissolved in distilled water and the pH adjusted to 6.7 with NaOH. Pentylenetetrazol (PTZ) was dissolved in 0.9% saline. Prodrug compounds or AICA riboside (Sigma) when used alone was dissolved in distilled water. All solutions containing Mioflazine (Janssen Pharmaceuticals) were prepared at a final DMSO concentration of 10-15% as were the Dipyridamole (Sigma) solutions. N-ethylcarboxamide adenosine, NECA (Sigma) and Flunitrazepam (Hoffman La Roche) injections were prepared in a final ethanol concentration of 0.2%. In all cases carrier control solutions of carrier were injected that were matched for both tonicity and solvents to the test solutions. All test and control solutions were injected via a bolus, I.P., using a 27 gauge needle. HTL and PTZ were injected subcutaneously in the upper back of the animal.
Animals were preinjected with either control solution containing only carrier or test solution containing candidate compound (prodrug or AICA riboside) and carrier in groups of 6-8 per test solution or control. […]

HTL-induced seizures = assay: Inhibition of HTL-induced seizures; format: in vivo; settings: mice
Procedure: Compounds were tested for their activities in inhibiting HTL-induced seizures in rats.
Animals used were male Swiss Webster mice weighing 21-30 grams (Charles River Breeding Labs, Wilmington, MA). All animals were adapted to the laboratory for at least 5 days prior to use.
as §2, with “animal. […]” for “animal.”

ischemic heart tissue = assay: Adenosine, AICA riboside and ZMP levels in ischemic heart tissue; format: in vivo, rats; settings: for adenosine concentrations during net ATP breakdown: rat heart ischemia model
Procedure: Prodrug compounds of the present invention and AICA riboside were tested for their activity in enhancing the production of adenosine and increasing production of AICA riboside from ZMP in ischemic heart tissue in rats.
Samples of heart tissue after ischemia were analyzed for nucleoside and nucleotide levels. Samples were measured for adenosine, AICA riboside and ZMP concentrations by HPLC.

plasma glucose = assay: Plasma glucose after adenosine and adenosine receptor agonists I.P.; format: in vivo; settings: administered I.P. in either rats or mice
Excerpt: This leads to investigation of the mechanism of AICA riboside induced hypoglycemia. […] This adenosine induced hyperglycemia is reversed by adenosine receptor antagonists (theophylline and sulphophenyltheophylline). Additionally, the AICA riboside-induced hypoglycemia is not blocked by theophylline. It is therefore concluded that the AICA riboside effect on plasma glucose is not mediated by adenosine. […] (See Figure 13).

in vivo = assay: in vivo; design: species or system dogs; settings: dog; for AUC / Cmax / Tmax: po
Procedure: The bioavailability of AICA riboside after oral administration of either AICA riboside or one of the AICA riboside prodrugs of the present invention was evaluated in dogs. Plasma concentrations of AICA riboside and intact prodrug were measured using HPLC. (See Dixon, R., et al., Res. Commun. Chem. Path. Pharm. 65:405-408 (1989)). Bioavailability of AICA riboside was evaluated in terms of the time required to reach maximum plasma concentration (Tmax), the maximum concentration achieved (Cmax) and the area under the plasma concentration-time curve (AUC) from time zero to the last measurable plasma concentration. Absolute bioavailability (F%) was calculated by dividing the AUC for AICA riboside following oral administration of the prodrug (or AICA riboside itself) by the AUC following intravenous administration of an equivalent amount of AICA riboside (100% bioavailability).

[2] = target: T1, fructose diphosphatase ("FDPase") (Oryctolagus cuniculus, UniProt P00637); assay: Inhibition of fructose-1,6-diphosphatase from rabbit liver; format: biochemical
T1 construct: fructose -1,6- diphosphatase from rabbit liver (Sigma); purchased Sigma; host or cells: rabbit liver (enzyme isolated from tissue)
T1 sequence (P00637 2-338 limits assumed): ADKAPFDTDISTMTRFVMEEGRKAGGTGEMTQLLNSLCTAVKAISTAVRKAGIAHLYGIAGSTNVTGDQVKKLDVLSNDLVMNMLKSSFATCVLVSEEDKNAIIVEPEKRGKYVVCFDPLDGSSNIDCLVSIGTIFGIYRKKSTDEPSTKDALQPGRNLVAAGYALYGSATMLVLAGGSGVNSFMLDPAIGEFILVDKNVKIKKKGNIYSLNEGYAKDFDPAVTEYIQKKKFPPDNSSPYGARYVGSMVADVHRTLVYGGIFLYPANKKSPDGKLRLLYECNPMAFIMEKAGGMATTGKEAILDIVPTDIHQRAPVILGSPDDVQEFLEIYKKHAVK
Excerpt: Activity was expressed as a velocity (rate of conversion of substrate).

FDPase [3] = target: T2, FDPase (Mus musculus, UniProt Q9QXD6); assay: Inhibition of liver FDPase by ZMP (IC50); format: biochemical; settings: Mouse liver homogenate supernatant
T2 construct: Liver samples (from the indicated species) were homogenized; from tissue; host or cells: mouse liver homogenate, 45,000 x g supernatant passed over Sephadex G25
T2 sequence (Q9QXD6 2-338 limits assumed): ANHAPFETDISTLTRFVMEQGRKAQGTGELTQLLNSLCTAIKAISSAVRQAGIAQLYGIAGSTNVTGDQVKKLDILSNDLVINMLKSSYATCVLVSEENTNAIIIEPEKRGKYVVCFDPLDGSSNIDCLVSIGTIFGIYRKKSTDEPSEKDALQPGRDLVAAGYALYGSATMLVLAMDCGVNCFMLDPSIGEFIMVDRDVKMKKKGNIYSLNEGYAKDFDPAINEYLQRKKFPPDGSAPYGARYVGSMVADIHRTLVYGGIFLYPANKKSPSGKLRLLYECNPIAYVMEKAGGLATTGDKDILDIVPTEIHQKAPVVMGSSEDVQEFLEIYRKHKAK
Procedure: (§3) Liver samples (from the indicated species) were homogenized in 20 mM potassium phosphate buffer (pH 7.4) with 100 µM EDTA and 100 µM dithiothreitol. The liver homogenates were centrifuged at 45,000 x/g. The supernatants were passed over a sephadex G25 column and assayed for FDPase activity by the method of Marcus et al (Methods in Enzymology 90: 352-356 (1982)) in the presence of ZMP over a range of concentration and in the absence of ZMP. The IC50 value was defined as the concentration of ZMP, which inhibited 50 percent of the baseline FDPase activity under the assay conditions.

FDPase [4] = target: T3, FDPase (Oryctolagus cuniculus, UniProt P00637); assay: Inhibition of liver FDPase by ZMP (IC50); format: biochemical; settings: Rabbit liver homogenate supernatant
T3 construct: Liver samples (from the indicated species) were homogenized; from tissue; host or cells: rabbit liver homogenate, 45,000 x g supernatant passed over Sephadex G25
T3 sequence (P00637 2-338 limits assumed): as the sequence (P00637 2-338 limits assumed) above
Procedure: as §3

FDPase [5] = assay: Inhibition of liver FDPase by ZMP (IC50); format: biochemical
Procedure: as §3

FDPase [6] = target: T4, FDPase (Homo sapiens, UniProt P09467); assay: Inhibition of liver FDPase by ZMP (IC50); format: biochemical; settings: Human liver homogenate supernatant
T4 construct: Liver samples (from the indicated species) were homogenized; from tissue; host or cells: human liver homogenate, 45,000 x g supernatant passed over Sephadex G25
T4 sequence (P09467 2-338 limits assumed): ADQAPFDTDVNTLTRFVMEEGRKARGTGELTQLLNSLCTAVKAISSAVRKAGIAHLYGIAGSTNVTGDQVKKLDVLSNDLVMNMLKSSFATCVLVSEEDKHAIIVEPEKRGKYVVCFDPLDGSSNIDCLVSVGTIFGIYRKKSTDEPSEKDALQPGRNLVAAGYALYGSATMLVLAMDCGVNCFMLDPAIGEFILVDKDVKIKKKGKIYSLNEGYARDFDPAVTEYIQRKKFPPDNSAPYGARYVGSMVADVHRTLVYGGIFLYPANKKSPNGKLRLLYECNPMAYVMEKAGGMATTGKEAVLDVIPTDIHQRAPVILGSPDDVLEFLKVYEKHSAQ
Procedure: as §3

FDPase [7] = target: T5, FDPase (Rattus norvegicus, UniProt P19112); assay: Inhibition of liver FDPase by ZMP (IC50); format: biochemical; settings: Rat liver homogenate supernatant
T5 construct: Liver samples (from the indicated species) were homogenized; from tissue; host or cells: rat liver homogenate, 45,000 x g supernatant passed over Sephadex G25
T5 sequence (P19112 2-363 limits assumed): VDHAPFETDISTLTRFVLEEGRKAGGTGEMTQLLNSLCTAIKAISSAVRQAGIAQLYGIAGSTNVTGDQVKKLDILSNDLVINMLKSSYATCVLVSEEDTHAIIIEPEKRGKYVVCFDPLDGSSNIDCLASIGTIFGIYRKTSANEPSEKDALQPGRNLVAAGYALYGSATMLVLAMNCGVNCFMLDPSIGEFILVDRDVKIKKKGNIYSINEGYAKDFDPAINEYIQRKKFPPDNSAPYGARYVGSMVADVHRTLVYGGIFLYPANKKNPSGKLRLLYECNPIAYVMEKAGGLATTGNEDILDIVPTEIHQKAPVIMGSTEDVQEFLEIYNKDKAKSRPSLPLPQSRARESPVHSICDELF
Procedure: as §3

blood glucose = settings: several animal species, including man; cited from earlier work
[8] = Enhanced oral bioavailability: tissue ZMP levels after gavage; format: in vivo, Sprague-Dawley rats
Procedure: AICA riboside was administered to Sprague-Dawley rats at a dose of 250 mg/kg or 500 mg/kg, prodrug compounds of the present invention were administered at an equal molar dose.
At 15, 30, 60 and 120 minutes after gavage, the animals were sacrificed. The tissues were obtained and frozen immediately for nucleoside and nucleotide analysis. The tissue samples obtained were liver, heart, brain and whole blood. After initial freezing in liquid nitrogen, the tissue samples were extracted with trichloroacetic acid and neutralized with alamine freon. The tissue samples were evaluated by HPLC on a Whatman Partsil-10 (SAX) column for nucleosides and bases as described in Example 6. […] Tests were run with 8 rats.
Figures 5(a) and (b) show ZMP concentrations in rat liver at doses of a molar equivalent of 250 mg/kg and 500 mg/kg AICA riboside.

adenosine kinase, sequence (P55263 whole entry, species assumed): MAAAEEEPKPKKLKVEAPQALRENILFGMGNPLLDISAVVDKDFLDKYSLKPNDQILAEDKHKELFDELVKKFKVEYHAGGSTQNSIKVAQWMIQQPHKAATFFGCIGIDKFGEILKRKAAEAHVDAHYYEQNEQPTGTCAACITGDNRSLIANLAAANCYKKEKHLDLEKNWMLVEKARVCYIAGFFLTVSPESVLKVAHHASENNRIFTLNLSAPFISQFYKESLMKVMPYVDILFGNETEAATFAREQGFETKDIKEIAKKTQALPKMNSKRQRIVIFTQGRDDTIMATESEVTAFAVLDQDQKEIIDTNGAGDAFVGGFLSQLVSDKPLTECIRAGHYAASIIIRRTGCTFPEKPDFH

For `NC(=O)c1ncn(C2OC(CSCCC(N)C(=O)O)C(O)C2O)c1N` (stereo not shown) [S-AICA riboside homocysteine, S-AICA ribosyl homocysteine], the “inhibition of adenosine kinase” value (adenosine kinase) was “more potent”.
With `NC[C@H]1O[C@@H](n2cnc3c(N)ncnc32)[C@H](O)[C@@H]1O` [5'-amino-5'-deoxyadenosine] the “adenosine concentrations during net ATP breakdown” value (cell culture) was “increased adenosine concentrations”, the “changes in blood pressure or heart rate” value [1] was “did not produce any significant changes in blood pressure or heart rate” and the “activity against PTZ induced seizures” value (PTZ induced seizures) was “effective in blocking pentylene-tetrazole (PTZ) induced seizures”. For the same compound, the “activity against HTL-induced seizures” value (HTL-induced seizures) was “observed to prevent HTL-induced seizure” and the “adenosine concentrations during net ATP breakdown” value (ischemic heart tissue) was “increased adenosine concentrations”.
For `OC[C@H]1O[C@@H](n2cnc3c(NC4CCCCC4)ncnc32)[C@H](O)[C@@H]1O` [cyclohexyladenosine], the “increases in plasma glucose (hyperglycemia)” value (“increases in plasma glucose” below) (plasma glucose) was 200-300%.
Work on `CC(C)(C)C(=O)OC[C@H]1O[C@@H](n2cnc(C(N)=O)c2N)[C@H](O)[C@@H]1O` [Compound 11, 5'-pivalyl-AICA riboside] yielded an F (in vivo) of 44%, an AUC (in vivo) of 3.7 µg·h/mL and a Cmax (in vivo) of 3.2 µg/mL. For the same compound, the Tmax (in vivo) was 1.0 h.
With `CCNC(=O)[C@H]1O[C@@H](n2cnc3c(N)ncnc32)[C@H](O)[C@@H]1O` [N-ethylcarboxamide adenosine] the “increases in plasma glucose” value (plasma glucose) was 200-300%.
Work on `NC(=O)c1ncn([C@@H]2O[C@H](COP(=O)(O)O)[C@@H](O)[C@H]2O)c1N` [ZMP, AICA riboside-5'-monophosphate] yielded a Ki [2] of about 40 µM, an IC50 (FDPase [3]) of 150 µM and an IC50 (FDPase [4]) of 41 µM. The IC50 (FDPase [5]; Gerbil liver homogenate supernatant) was 50 µM, the IC50 (FDPase [5]; Guinea Pig liver homogenate supernatant) was 12 µM and the IC50 (FDPase [6]) was 48 µM. For the same compound, the IC50 (FDPase [7]) was 375 µM.
Compound `CC(C)C(=O)OC[C@H]1O[C@@H](n2cnc(C(N)=O)c2N)[C@H](O)[C@@H]1O` [Compound 10, 5'-isobutyryl-AICA riboside] has an F (in vivo) of 60%, an AUC (in vivo) of 4.9 µg·h/mL and a Cmax (in vivo) of 5.0 µg/mL. For the same compound, the Tmax (in vivo) was 0.75 h.
For `Nc1ncnc2c1c(I)cn2[C@@H]1O[C@H](CO)[C@@H](O)[C@H]1O` [5-iodotubercidin], the “adenosine concentrations during net ATP breakdown” value (cell culture) was “increased adenosine concentrations” and the “adenosine concentrations during net ATP breakdown” value (ischemic heart tissue) was “increased adenosine concentrations”.
With `Nc1ncnc2c1ncn2[C@@H]1O[C@H](CO)[C@@H](O)[C@H]1O` [adenosine, 9-β-D-ribofuranosyladenine] the “increases in plasma glucose” value (plasma glucose) was 200-300%.
Work on `CC(=O)OC[C@H]1O[C@@H](n2cnc(C(N)=O)c2N)[C@H](OC(C)=O)[C@@H]1OC(C)=O` [Compound C1, 2',3',5'-triacetyl AICA riboside] yielded an F (in vivo) of 39%, an AUC (in vivo) of 3.2 µg·h/mL and a Cmax (in vivo) of 2.2 µg/mL. The Tmax (in vivo) was 1.5 h.
For `O=C[C@H](O)[C@H](O)[C@H](O)CO` [Ribose], the “dose lowering blood glucose” value (blood glucose) is listed as “about 1000 mg/kg”.
With `CC(C)COC(=O)O[C@H]1[C@@H](O)[C@H](n2cnc(C(N)=O)c2N)O[C@@H]1CO` [Prodrug A, 5-amino-3'-(2-methyl-1-propoxycarbonyl)-1-β-D-ribofuranosyl-imidazole-4-carboxamideie] the “ZMP accumulation in the liver relative to AICA riboside” value ([8]; after an equimolar gavage) was 5 times, the “oral bioavailability as evidenced by ZMP levels in liver, whole blood and heart” value ([8]; rats, gavage, dose equimolar to AICA riboside) was “increased oral bioavailability” and the “activity against HTL-induced seizures” value (HTL-induced seizures) was “improved anticonvulsant activity”. For the same compound, the “potency in enhancing adenosine production relative to AICA riboside” value (ischemic heart tissue; ischemic heart model, molar basis) was “about 30%”, the “Tissue Concentration Adenosine” value (ischemic heart tissue; ischemic rat heart tissue, Prodrug A at dose equimolar to AICA riboside) was 553 ± 46 nmol/g and the “Tissue Concentration AICA Riboside” value (ischemic heart tissue; ischemic rat heart tissue, equimolar doses) was 592 ± 55 nmol/g.
